Measured values: patent publication US9850247B2 (Almac Discovery Limited, priority 2013, dated 2017)

Tests used:
[1] = target: T1, Wee-1 kinase (Homo sapiens, UniProt P30291); test: Measurement of Wee-1 kinase activity (ADP-Glo luminescent kit); format: biochemical
T1 construct: purchased Invitrogen PV3817
Procedure: Method 1: Measurement of Wee-1 Kinase Activity
In the measurement of Wee-1 activity, a commercial peptide Poly(Lys Tyr (4:1)) hydrobromide was purchased from Sigma Aldrich and used as the substrate. Activated Wee-1 kinase was purchased from Invitrogen (PV3817) and an ADP-Glo luminescent kit was purchased from Promega.
All reactions took place in […] volumes in reaction buffer containing 40 mM Tris-HCl and 20 mM magnesium chloride, supplemented with 0.1 mg/mL bovine serum albumin and 2 mM DTT. Compounds were serially diluted in buffer and 5 μL of each concentration pipetted into a white 384 well plate (Sigma Aldrich M6186). A 5 μL aliquot of the Wee-1 enzyme was added to each well and the plate centrifuged for 1 min to ensure mixing of the enzyme and inhibitor.
The plate was incubated at room temperature for 30 minutes before the addition of 2.0 μg/mL of substrate and 30 μM ATP in a 5 μL aliquot. The plate was centrifuged for one minute and incubated for 1 h at RT.
15 µL of ADP-Glo stop reagent was added to each well to quench the reaction and deplete unconverted ATP. The plate was incubated for a further 40 min in the dark at RT.
30 μL of ADP-Glo kinase detection reagent was added to each well, converting ADP to ATP, catalysing the generation of luciferin by luciferase. The plate was shaken for 1 min, and incubated in the dark for an additional hour.
Luminescence from each well was detected using the Biotek Synergy4 HD plate reader and the percentage inhibition of kinase activity calculated for each inhibitor tested. Positive (kinase only) and negative (no kinase) controls were added to each plate to ensure specific interaction of kinase and inhibitor. The IC50 concentration for each inhibitor was calculated by plotting the percentage kinase inhibition against concentration of inhibitor and the curve generated by non-linear regression fitting.

[2] = CLint estimates using human liver microsomes (Method 4); format: in vitro ADME; conditions: pH 7.4, 1 μM compound, read-out: Mics - CLint (HLM CLint)
Procedure: Method 4: Determination of CLint Estimates Using Human liver microsomes Test compounds (final concentration=1 μM; final DMSO concentration=0.1%) were incubated in 0.1 M phosphate buffer pH 7.4 with human liver microsomes (0.5 mg of protein/mL) at 37° C. Reactions were started by addition of NADPH in 0.1 M phosphate buffer pH 7.4 (final concentration 1 mM). 40 μL aliquots were removed at 2, 5, 10, 15, 20, 30, 40 and 50 min. Reactions were quenched in 80 μL of ice-cold methanol. Samples were subsequently frozen overnight then centrifuged at 3500 rpm for 20 min at 4° C. The supernatants were removed and transferred into analytical plates and analysed by LC/MS/MS. LC/MS/MS Method: All samples were analysed on a Waters Acquity I-Class coupled to a Waters Xevo TQD mass spectrometer. A Waters BEH C18 2.1×50 mm 1.7 μm column was used and mobile phases were water and methanol containing 0.1% formic acid as modifier. Analysis was by multiple reaction monitoring and conditions were optimised for each test compound. Data Analyses: From a plot of 1n peak area against time, the gradient of the line is determined. Subsequently, half-life and intrinsic clearance are calculated using the following equations. [formula] [formula] [formula] where V=Incubation volume (μL)/number of cells Method 5: Determination of Kinetic Solubility (in PBS Buffer)

T1 sequence (P30291 whole entry): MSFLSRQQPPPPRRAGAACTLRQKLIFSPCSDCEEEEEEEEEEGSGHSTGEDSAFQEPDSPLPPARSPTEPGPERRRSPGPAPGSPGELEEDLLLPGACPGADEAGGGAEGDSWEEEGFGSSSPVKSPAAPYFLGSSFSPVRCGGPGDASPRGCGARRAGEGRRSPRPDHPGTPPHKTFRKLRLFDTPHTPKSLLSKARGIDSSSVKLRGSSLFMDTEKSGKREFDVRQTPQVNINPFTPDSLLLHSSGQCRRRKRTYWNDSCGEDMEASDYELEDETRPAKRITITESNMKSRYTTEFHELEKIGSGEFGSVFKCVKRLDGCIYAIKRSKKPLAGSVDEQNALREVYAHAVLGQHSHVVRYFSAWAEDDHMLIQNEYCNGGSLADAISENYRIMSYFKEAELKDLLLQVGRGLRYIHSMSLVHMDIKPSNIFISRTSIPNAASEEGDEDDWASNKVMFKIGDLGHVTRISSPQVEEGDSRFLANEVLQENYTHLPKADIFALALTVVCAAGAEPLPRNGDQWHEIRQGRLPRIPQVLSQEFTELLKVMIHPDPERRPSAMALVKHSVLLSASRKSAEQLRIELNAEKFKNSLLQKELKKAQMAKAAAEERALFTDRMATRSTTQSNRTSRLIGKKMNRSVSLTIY

With `CN1CC2CN(c3ccc(Nc4ncc5c(n4)N(C)CN(c4c(Cl)cccc4Cl)C5=O)cc3)CC2C1` (centres unmarked) [Example 35, 3-(2,6-dichlorophenyl)-1-methyl-7-((4-(5-methylhexahydropyrrolo[3,4-c]pyrrol-2(1H)-yl)phenyl)amino)-2,3-dihydropyrimido[4,5-d]pyrimidin-4(1H)-one] the IC50 [1] was 0.01 to 0.1 µM and the microsomal CLint at 1 μM [2] was 15 to 50 µL/min/mg.
In the case of `Cc1cc(Nc2ncc3c(n2)N(C)CN(c2ccccc2Cl)C3=O)ccc1N1C[C@@H]2C[C@H]1CN2` [Example 109, 7-((4-((1S,4S)-2,5-diazabicyclo[2.2.1]heptan-2-yl)-3-methylphenyl)amino)-3-(2-chlorophenyl)-1-methyl-2,3-dihydropyrimido[4,5-d]pyrimidin-4(1H)-one], the IC50 [1] is reported as 0.01 to 0.1 µM and the microsomal CLint at 1 μM [2] is reported as ≤ 15 µL/min/mg.
With `C[C@@H]1CN(c2ccc(Nc3ncc4c(n3)N(c3ccn(C)n3)CN(c3c(Cl)cccc3Cl)C4=O)cc2)CCN1` [Example 58, (R)-3-(2,6-dichlorophenyl)-1-(1-methyl-1H-pyrazol-3-yl)-7-((4-(3-methylpiperazin-1-yl)phenyl)amino)-2,3-dihydropyrimido[4,5-d]pyrimidin-4(1H)-one] the IC50 [1] was ≤ 0.01 µM and the microsomal CLint at 1 μM [2] was ≤ 15 µL/min/mg.
In the case of `CC(=O)NCc1cc(Nc2ncc3c(n2)N(C)CN(c2c(Cl)cccc2Cl)C3=O)ccc1N1CCNCC1` [Example 145, N-(5-((6-(2,6-dichlorophenyl)-8-methyl-5-oxo-5,6,7,8-tetrahydropyrimido[4,5-d]pyrimidin-2-yl)amino)-2-(piperazin-1-yl)benzyl)acetamide], the IC50 [1] is reported as 0.01 to 0.1 µM and the microsomal CLint at 1 μM [2] is reported as ≤ 15 µL/min/mg.
`CN1CN(c2c(Cl)cccc2Cl)C(=O)c2cnc(Nc3ccc(N4CCOCC4)cc3)nc21` [Example 41, 3-(2,6-dichlorophenyl)-1-methyl-7-((4-morpholinophenyl)amino)-2,3-dihydropyrimido[4,5-d]pyrimidin-4(1H)-one] showed an IC50 [1] of 0.01 to 0.1 µM and a microsomal CLint at 1 μM [2] of 15 to 50 µL/min/mg.
In the case of `CN1CCC(Nc2cccc(Nc3ncc4c(n3)N(C)CN(c3c(Cl)cccc3Cl)C4=O)c2)CC1` [Example 91, 3-(2,6-dichlorophenyl)-1-methyl-7-((3-((1-methylpiperidin-4-yl)amino)phenyl)amino)-2,3-dihydropyrimido[4,5-d]pyrimidin-4(1H)-one], the IC50 [1] is reported as 0.01 to 0.1 µM and the microsomal CLint at 1 μM [2] is reported as ≤ 15 µL/min/mg.
`CNCc1cc(Nc2ncc3c(n2)N(C)CN(c2c(Cl)cccc2Cl)C3=O)ccc1-c1cccnc1` [Example 156, 3-(2,6-dichlorophenyl)-1-methyl-7-((3-((methylamino)methyl)-4-(pyridin-3-yl)phenyl)amino)-2,3-dihydropyrimido[4,5-d]pyrimidin-4(1H)-one] gave an IC50 [1] of 0.01 to 0.1 µM and a microsomal CLint at 1 μM [2] of 15 to 50 µL/min/mg.
For `Cc1cc(Nc2ncc3c(n2)N(C)CN(c2c(Cl)cccc2Cl)C3=O)ccc1N1C[C@H]2C[C@@H]1CN2` [Example 118, 7-((4-((1R,4R)-2,5-diazabicyclo[2.2.1]heptan-2-yl)-3-methylphenyl)amino)-3-(2,6-dichlorophenyl)-1-methyl-2,3-dihydropyrimido[4,5-d]pyrimidin-4(1H)-one], the IC50 [1] was 0.01 to 0.1 µM and the microsomal CLint at 1 μM [2] was ≤ 15 µL/min/mg.
With `C[C@@H]1CN(c2ccc(Nc3ncc4c(n3)N(C)CN(c3c(Cl)cccc3Cl)C4=O)c(F)c2)CCN1` [Example 142, (R)-3-(2,6-dichlorophenyl)-7-((2-fluoro-4-(3-methylpiperazin-1-yl)phenyl)amino)-1-methyl-2,3-dihydropyrimido[4,5-d]pyrimidin-4(1H)-one] the IC50 [1] was ≥ 0.1 µM and the microsomal CLint at 1 μM [2] was 15 to 50 µL/min/mg.
With `CNCc1cc(Nc2ncc3c(n2)N(C)CN(c2c(Cl)cccc2Cl)C3=O)ccc1N1CCCCC1` [Example 136, 3-(2,6-dichlorophenyl)-1-methyl-7-((3-((methylamino)methyl)-4-(piperidin-1-yl)phenyl)amino)-2,3-dihydropyrimido[4,5-d]pyrimidin-4(1H)-one] the IC50 [1] was 0.01 to 0.1 µM and the microsomal CLint at 1 μM [2] was ≥ 50 µL/min/mg.
For `CN1CN(c2c(Cl)cccc2Cl)C(=O)c2cnc(Nc3ccc(N4C[C@@H]5C[C@H]4CN5)cc3)nc21` [Example 39, 7-((4-((1S,4S)-2,5-diazabicyclo[2.2.1]heptan-2-yl)phenyl)amino)-3-(2,6-dichlorophenyl)-1-methyl-2,3-dihydropyrimido[4,5-d]pyrimidin-4(1H)-one], the IC50 [1] was 0.01 to 0.1 µM and the microsomal CLint at 1 μM [2] was ≤ 15 µL/min/mg.
For `CN1CN(c2c(Cl)cccc2Cl)C(=O)c2cnc(Nc3ccc(N4CCN[C@H](CO)C4)c(F)c3)nc21` [Example 48, (S)-3-(2,6-dichlorophenyl)-7-((3-fluoro-4-(3-(hydroxymethyl)piperazin-1-yl)phenyl)amino)-1-methyl-2,3-dihydropyrimido[4,5-d]pyrimidin-4(1H)-one], the IC50 [1] was 0.01 to 0.1 µM and the microsomal CLint at 1 μM [2] was ≤ 15 µL/min/mg.
With `CCN1CCN(c2ccc(Nc3ncc4c(n3)N(C)CN(c3c(Cl)cccc3Cl)C4=O)cc2)CC1` [Example 122, 3-(2,6-dichlorophenyl)-7-((4-(4-ethylpiperazin-1-yl)phenyl)amino)-1-methyl-2,3-dihydropyrimido[4,5-d]pyrimidin-4(1H)-one] the IC50 [1] was 0.01 to 0.1 µM and the microsomal CLint at 1 μM [2] was 15 to 50 µL/min/mg.
For `CN1CN(c2c(Cl)cccc2Cl)C(=O)c2cnc(Nc3ccc(OC4CCNCC4)cc3)nc21` [Example 87, 3-(2,6-dichlorophenyl)-1-methyl-7-((4-(piperidin-4-yloxy)phenyl)amino)-2,3-dihydropyrimido[4,5-d]pyrimidin-4(1H)-one], the IC50 [1] was 0.01 to 0.1 µM and the microsomal CLint at 1 μM [2] was ≤ 15 µL/min/mg.
For `COC[C@@H]1CNCCN1c1ccc(Nc2ncc3c(n2)N(C)CN(c2c(Cl)cccc2Cl)C3=O)cc1` [Example 130, (S)-3-(2,6-dichlorophenyl)-7-((4-(2-(methoxymethyl)piperazin-1-yl)phenyl)amino)-1-methyl-2,3-dihydropyrimido[4,5-d]pyrimidin-4(1H)-one], the IC50 [1] was 0.01 to 0.1 µM and the microsomal CLint at 1 μM [2] was 15 to 50 µL/min/mg.
`C[C@@H]1CN(c2ccc(Nc3ncc4c(n3)N(C)CN(c3c(Cl)cccc3Cl)C4=O)cc2)CCN1C` [Example 32, (R)-3-(2,6-dichlorophenyl)-7-((4-(3,4-dimethylpiperazin-1-yl)phenyl)amino)-1-methyl-2,3-dihydropyrimido[4,5-d]pyrimidin-4(1H)-one] gave an IC50 [1] of 0.01 to 0.1 µM and a microsomal CLint at 1 μM [2] of 15 to 50 µL/min/mg.
In the case of `CN1CN(c2ccccc2Cl)C(=O)c2cnc(Nc3ccc(N4CC5CCC(C4)N5C)c(CO)c3)nc21` [Example 97, 3-(2-chlorophenyl)-7-((3-(hydroxymethyl)-4-(8-methyl-3,8-diazabicyclo[3.2.1]octan-3-yl)phenyl)amino)-1-methyl-2,3-dihydropyrimido[4,5-d]pyrimidin-4(1H)-one], the IC50 [1] is reported as 0.01 to 0.1 µM and the microsomal CLint at 1 μM [2] is reported as ≤ 15 µL/min/mg.
With `CNCc1cc(Nc2ncc3c(n2)N(C)CN(c2c(Cl)cccc2Cl)C3=O)ccc1-c1ccncc1` [Example 155, 3-(2,6-dichlorophenyl)-1-methyl-7-((3-((methylamino)methyl)-4-(pyridin-4-yl)phenyl)amino)-2,3-dihydropyrimido[4,5-d]pyrimidin-4(1H)-one] the IC50 [1] was 0.01 to 0.1 µM and the microsomal CLint at 1 μM [2] was ≤ 15 µL/min/mg.
With `CN1CN(c2ccccc2Cl)C(=O)c2cnc(Nc3ccc(N4CCNC(C)(C)C4)cc3)nc21` [Example 106, 3-(2-chlorophenyl)-7-((4-(3,3-dimethylpiperazin-1-yl)phenyl)amino)-1-methyl-2,3-dihydropyrimido[4,5-d]pyrimidin-4(1H)-one] the IC50 [1] was 0.01 to 0.1 µM and the microsomal CLint at 1 μM [2] was ≤ 15 µL/min/mg.
